Reference: patent US10822376B2, “Biologically active peptides” (Baxalta Incorporated, priority 2008, dated 2020)

Tests used:
FIX−/− mice = assay: Tail clip assay in FIX−/− mice (blood loss, survival); format: in vivo, mouse
in vitro [1] = conditions: human, pH 7.4
in vitro [2] = conditions: mouse, pH 7.4
mouse serum albumin = mouse serum albumin (Mus musculus, UniProt P07724); assay: in vitro; conditions: pH 7.4
FVIII−/− (E17) mice = assay: Tail clip assay in FVIII−/− mice (blood loss, survival)
Description: Groups of mice, typically 8-16 male and female exon 17 FVIII knockout mice with severe hemorrhagic diathesis, receive a single i.v. (tail vein), i.p. or s.c. bolus injection (10 ml/kg body weight). Two minutes before tail clip, animals are anesthetized by an i.p. application of 100 mg/kg ketamine and 5 mg/kg xylazine. Five minutes after i.v. and 60 minutes after i.p. or s.c. peptide or peptide derivative administration 0.5 cm of the tail tip is ablated. Blood dropping from the wound is collected in tubes containing 5.0 ml 0.04% NH3 for defined time periods, such as 0-2 minutes, 2-4 minutes, 4-6 minutes, 6-8, 8-10, 10-12, 12-14, 14-16, 16-20, 20-24, 24-28, 28-32, 32-42, 42-52 and 52-62 minutes. Blood cells in each tube are disrupted and hemoglobin is extracted by a three hour incubation period at room temperature followed by ultrasound treatment. The absorbance at 414 nm and 620 nm of the extracts is determined in micro titre plates. 620 nm is a reference wavelength and the A620 reading is subtracted from the A414 reading. The amount of blood in the extract corresponding to the subtracted reading is calculated from a standard curve created by known amounts of blood from wild type control mice, such as C57/BI6 mice. Parameters of the bleeding characteristics of the mice to be recorded are total blood loss, bleeding rate, bleeding time, 1 h, 2 h, 3 h, 4 h, 24 h and 48 h survival. Cumulative blood loss is calculated by summing up the amounts of blood for each time period. Data for the animals of a group are averaged and plotted against bleeding time. At each time point data sets for treatment and vehicle control groups are analysed by Student's t-test for statistical significance.
Parameters quantified were total blood loss, bleeding time, bleeding rate and survival.
Blood loss was monitored in the tail clip assay as described in the specific description for 62 minutes after tail clip. FVIII−/− mice were administered with rFVIII (Advate®) at 25, 50 or 100 U/kg i.v. or with vehicle alone. […] As a control, C57BI/6 mice were administered vehicle alone.
Vehicle was 5% DMSO, 5% Cremophor EL, 0.05% Tween 80 in water for injection.

mouse serum albumin, sequence (P07724 25-608): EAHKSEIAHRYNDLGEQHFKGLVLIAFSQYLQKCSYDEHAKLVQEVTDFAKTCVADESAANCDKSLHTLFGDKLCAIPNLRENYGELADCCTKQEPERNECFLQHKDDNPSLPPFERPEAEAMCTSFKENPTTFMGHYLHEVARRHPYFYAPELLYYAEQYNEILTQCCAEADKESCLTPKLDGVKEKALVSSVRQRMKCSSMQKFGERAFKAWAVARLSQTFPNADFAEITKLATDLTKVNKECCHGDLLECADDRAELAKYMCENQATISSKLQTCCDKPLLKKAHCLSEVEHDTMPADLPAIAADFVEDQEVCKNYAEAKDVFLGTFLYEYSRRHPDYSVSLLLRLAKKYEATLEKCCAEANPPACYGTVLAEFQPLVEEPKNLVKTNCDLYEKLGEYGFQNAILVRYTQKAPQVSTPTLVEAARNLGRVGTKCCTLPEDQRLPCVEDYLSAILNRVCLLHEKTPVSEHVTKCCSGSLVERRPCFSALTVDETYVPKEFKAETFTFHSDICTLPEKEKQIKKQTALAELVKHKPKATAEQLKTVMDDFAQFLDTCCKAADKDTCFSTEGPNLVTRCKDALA

For Ac-RMKFDVWDLYFEIVW-NH2 [Peptide A01], the “Survival vs vehicle alone” value (FIX−/− mice; 20 mg/kg i.v.) was “no significant difference”, the “Mean volume of blood loss following tail clip compared to vehicle control” value (FIX−/− mice; 20 mg/kg i.v. five minutes before tail clip, any time points) was “not significantly different” and the “Effect in FIX−/− mice” value (FIX−/− mice; conclusion) was “no effect”. For the same substance, the recovery at 6 h, 5 μM (in vitro [1]) was > 88.6%, the fraction unbound at 6 h, 5 μM (in vitro [1]; plasma) was < 0.017 and the recovery at 6 h, 5 μM (in vitro [2]) was > 73.3%. The fraction unbound at 6 h, 5 μM (in vitro [2]; plasma) was < 0.008, the fraction unbound at 6 h, 5 μM (mouse serum albumin) was < 0.003 and the recovery at 6 h, 5 μM (mouse serum albumin) was > 103%. For the same substance, the “Survival vs vehicle control” value (FVIII−/− (E17) mice; 20 mg/kg i.v.) was “statistically significant longer survival”, the “Mean volume of blood loss following tail clip compared to vehicle control” value (FVIII−/− (E17) mice; 20 mg/kg i.v. five minutes before tail clip, p<0.05 at most time points) was “significantly different” and the “p of difference in mean blood loss vs vehicle” value (FVIII−/− (E17) mice; 20 mg/kg i.v., at 52 and 62 minutes after tail clip) was < 0.01. For the same substance, the “Survival (%) 2 hours” value (FVIII−/− (E17) mice; FVIII−/− mice, 20 mg/kg i.v. five minutes before tail clip, 2 hours (Table 26)) was 56%, the “Survival (%) 4 hours” value (FVIII−/− (E17) mice; FVIII−/− mice, 20 mg/kg i.v. five minutes before tail clip, 4 hours (Table 26)) was 25% and the “Survival (%) 24 hours” value (FVIII−/− (E17) mice; FVIII−/− mice, 20 mg/kg i.v. five minutes before tail clip, 24 hours (Table 26)) was 6%. For the same substance, the “Survival (%) 48 hours” value (FVIII−/− (E17) mice; FVIII−/− mice, 20 mg/kg i.v. five minutes before tail clip, 48 hours (Table 26)) was 0%, the “Survival (%) 2 hours” value (FVIII−/− (E17) mice; FVIII−/− mice, Exp 1, 20 mg/kg i.v., tail clip, 2 hours) was 56% and the “Survival (%) 3 hours” value (FVIII−/− (E17) mice; FVIII−/− mice, Exp 1, 20 mg/kg i.v., tail clip) was 44%. The “Survival (%) 4 hours” value (FVIII−/− (E17) mice; FVIII−/− mice, Exp 1, 20 mg/kg i.v., tail clip, 4 hours) was 25%, the “Survival (%) 24 hours” value (FVIII−/− (E17) mice; FVIII−/− mice, Exp 1, 20 mg/kg i.v., tail clip, 24 hours) was 6% and the “Survival (%) 2 hours” value (FVIII−/− (E17) mice; FVIII−/− mice, Exp 2 (repeat), 20 mg/kg i.v., tail clip, 2 hours) was 63%. For the same substance, the “Survival (%) 3 hours” value (FVIII−/− (E17) mice; FVIII−/− mice, Exp 2 (repeat), 20 mg/kg i.v., tail clip) was 38%, the “Survival (%) 4 hours” value (FVIII−/− (E17) mice; FVIII−/− mice, Exp 2 (repeat), 20 mg/kg i.v., tail clip, 4 hours) was 31% and the “Survival (%) 24 hours” value (FVIII−/− (E17) mice; FVIII−/− mice, Exp 2 (repeat), 20 mg/kg i.v., tail clip, 24 hours) was 13%. The “Total blood loss (% of Vehicle)” value (FVIII−/− (E17) mice; FVIII−/− mice, female, 20 mg/kg i.p., 0.5 cm tail clip) was 72 % of Vehicle, the “Survival 2 hours (%)” value (FVIII−/− (E17) mice; FVIII−/− mice, female, 20 mg/kg i.p., 0.5 cm tail clip, 2 hours) was 75% and the “Survival 4 hours (%)” value (FVIII−/− (E17) mice; FVIII−/− mice, female, 20 mg/kg i.p., 0.5 cm tail clip, 4 hours) was 25%. For the same substance, the “Survival 24 hours (%)” value (FVIII−/− (E17) mice; FVIII−/− mice, female, 20 mg/kg i.p., 0.5 cm tail clip, 24 hours) was 25%, the “Survival 2 hours (%)” value (FVIII−/− (E17) mice; FVIII−/− mice, female, 20 mg/kg i.v., 1 cm tail clip, 2 hours) was 80% and the “Survival 24 hours (%)” value (FVIII−/− (E17) mice; FVIII−/− mice, female, 20 mg/kg i.v., 1 cm tail clip, 24 hours) was 10%. For the same substance, the “Total blood loss (% of Vehicle)” value (FVIII−/− (E17) mice; FVIII−/− mice, male, 20 mg/kg i.p., 0.5 cm tail clip) was 83 % of Vehicle, the “Survival 2 hours (%)” value (FVIII−/− (E17) mice; FVIII−/− mice, male, 20 mg/kg i.p., 0.5 cm tail clip, 2 hours) was 38% and the “Survival 4 hours (%)” value (FVIII−/− (E17) mice; FVIII−/− mice, male, 20 mg/kg i.p., 0.5 cm tail clip, 4 hours) was 25%. The “Survival 24 hours (%)” value (FVIII−/− (E17) mice; FVIII−/− mice, male, 20 mg/kg i.p., 0.5 cm tail clip, 24 hours) was 25%, the “Survival 2 hours (%)” value (FVIII−/− (E17) mice; FVIII−/− mice, male, 20 mg/kg i.v., 1 cm tail clip, 2 hours) was 20% and the “Survival 24 hours (%)” value (FVIII−/− (E17) mice; FVIII−/− mice, male, 20 mg/kg i.v., 1 cm tail clip, 24 hours) was 0%. For the same substance, the “Compensation for lack of FVIII (reducing blood loss, increasing survival following tail clip)” value (FVIII−/− (E17) mice; conclusion) was “at least partially compensate for the lack of FVIII”, the “Gender effect on efficacy” value (FVIII−/− (E17) mice; i.v., tail clip 1 cm) was “more effective in female than male mice” and the “Difference in survival curves vs vehicle” value (FVIII−/− (E17) mice; male mice, 20 mg/kg i.p., 0.5 cm tail clip) was “no statistically significant difference”. The “Bleeding and survival in two independently performed experiments” value (FVIII−/− (E17) mice; repeat experiment) was “bleed less and survive longer” and the “Activity in the tail clip assay” value (FVIII−/− (E17) mice; summary) was “possessing activity”.
